Article PMC9378861, “Formation and metabolism of 6-(1-acetol)-8-(1-acetol)-rutin in foods and in vivo, and their cytotoxicity” (Frontiers in Nutrition, 2022)
Where “and” joins values, the source holds several entries; their conditions need not be identical. Equal values may be shown once. Blank lines part the entries; values can stand above or below the molecule they belong to.

Columns and labels:
[1] = Rutin-MGO adducts in tissues, urine and feces of rats 24 h after oral rutin; type: in vivo, Sprague–Dawley rats; conditions: for Concentration in feces: feces collected within 24 h after rutin 100 mg/kg BW oral; for Concentration in urine: urine collected within 24 h after rutin 100 mg/kg BW oral
Experimental: (§1) The animals were treated as described in the study by Chen et al. ([22]). In brief, five 7 weeks old male Sprague–Dawley rats (190–220 g) were exposed to rutin (100 mg/kg BW) by oral gavage after fasting for 16 h. The plasma samples were collected at 0.25, 0.5, 1, 2, 4, 6, 8, 10, and 24 h after the administration, and stored under −80°C until analysis. The feces and urine were collected with the metabolic cages throughout the 24 h period. At 24 h, the rats were sacrificed after anesthetization, and the tissues including stomach, intestine (divided into duodenum, jejunum, ileum, caecum, and colon), heart, liver, kidney, and brain were taken and frozen immediately in liquid nitrogen and transferred to a deep freezer (−80°C) for storage before analysis. The procedures of the animal study followed the protocol by the Institutional Animal Care and Use Committee of the Laboratory Animal Center of Jinan University.
(§2) The plasma samples were treated as described by Chen et al. ([22]). About half gram of feces and tissue samples were weight accurately, and homogenized with 2 mL saline on an ice-bath. The homogenates were transferred to a centrifuge tube, added with 1 mL PBS (pH 5.0, 0.05 M) and 100 μL ascorbic acid (150 mg/mL), and extracted with 3 mL of methanol twice. The supernatants were combined after centrifugation at 13,000 × g under 4 °C for 10 min, evaporated to dryness, re-dissolved in 500 μL of 50% aqueous methanol containing 0.1% formic acid (v/v), and filtered through a 0.22 μm membrane for HPLC-MS/MS analysis. The adducts in 200 μL of urine were extracted twice with 1 mL methanol. The supernatants were collected after centrifugation at 13,000 × g under 4°C for 10 min, and evaporated to dryness. The residues were dissolved in 200 μL of 50% aqueous methanol containing 0.1% formic acid (v/v), and filtered through a 0.22 μm membrane for HPLC-MS/MS analysis. A sample of 1 μL was injected into an Agilent Technologies 1,260 Infinity HPLC (Agilent Technologies, CA, USA) interfaced to an AB 4500 Q-Trap mass spectrometer (AB Sciex, MA, USA) in the negative mode for quantification of adducts A and B, respectively. The eluting programs for HPLC analysis, and the operation conditions of mass spectrometer refers to those established by Chen et al. ([22]). […] Moreover, as the information on the occurrence levels of 6-(1,2-propanedione)-8-(1-acetol)-rutin, 6-(1-acetol)-8-(1,2-propanedione)-rutin, and 6-(1,2-propanedione)-8-(1,2-propanedione)-rutin discovered in the last study was still missing, the concentration of these oxidized rutin-MGO adducts in various tissues and urine and feces were also determined in this study. The qualification and quantification fragmentation transitions of these adducts refers to those provided previously ([22]).

[2] = rats, 15 min after administration of rutin; cited from earlier work
[3] = Plasma concentration of rutin-MGO adducts in rats after oral rutin (HPLC-MS/MS, MRM); type: in vivo, Sprague–Dawley rats
Experimental: as §1, §2

[4] = cited from earlier work; for Elimination rate on MGO (MGO scavenged): incubated with MGO at 37°C for 24 h
[5] = system: human umbilical vein endothelial (HUVEC) cell; assay: Cytotoxicity by MTT assay, HUVEC; type: cell-based; conditions: 1 mM, 24 h
[6] = system: human colon carcinoma cell line (Caco-2); assay: Cytotoxicity by MTT assay, Caco-2; type: cell-based; conditions: Caco-2, 1 mM, 24 h
[7] = system: human gastric epithelial cell line (GES-1); assay: Cytotoxicity by MTT assay, GES-1; type: cell-based; conditions: 24 h
[8] = system: AGEs; conditions: cited from earlier work
[9] = set-up: method as in PMID 19916501; conditions: anesthetized, mesenteric lymphatic/duodenum-cannulated rat model; cited from earlier work
[10] = 24 h after rutin 100 mg/kg BW oral
[11] = rutin 100 mg/kg BW oral gavage, time point 0.25 h
[12] = rutin 100 mg/kg BW oral gavage, time point 1.00 h
[13] = rutin 100 mg/kg BW oral gavage, time point 2.00 h

Concentration in brain [1, 10]: 0.12 ± 0.02 µg/kg
Concentration in caecum [1, 10]: trace
Concentration in heart [1, 10]: 0.14 ± 0.09 µg/kg
Concentration in ileum [1, 10]: trace
Concentration in kidney [1, 10]: 0.16 ± 0.04 µg/kg
Concentration in liver [1, 10]: 0.09 µg/kg and 0.09 ± 0.01 µg/kg
Concentration in stomach [1, 10]: 0.10 µg/kg and 0.10 ± 0.01 µg/kg
Concentration in feces [1]: 0.26 ± 0.18 µg/kg
Content in feces, folds lower than 6-(1,2-propanedione)-8-(1-acetol)-rutin and 6-(1-acetol)-8-(1,2-propanedione)-rutin ([1]; feces within 24 h after rutin 100 mg/kg BW oral): 6–9 folds
Concentration in urine [1]: 0.10 ng/mL and 0.10 ± 0.01 ng/mL
Structure (SMILES): CC(=O)C(=O)c1c(O)c(C(=O)C(C)=O)c2oc(-c3ccc(O)c(O)c3)c(O[C@@H]3O[C@H](CO[C@@H]4O[C@@H](C)[C@H](O)[C@@H](O)[C@H]4O)[C@@H](O)[C@H](O)[C@H]3O)c(=O)c2c1O [6-(1,2-propanedione)-8-(1,2-propanedione)-rutin]
Plasma concentration of oxidized rutin-MGO adducts [2]: 1.02 ng/mL

Concentration in brain [1, 10]: 0.11 ± 0.02 µg/kg
Concentration in heart [1, 10]: 0.09 ± 0.03 µg/kg
Concentration in ileum [1, 10]: trace
Concentration in kidney [1, 10]: 0.07 ± 0.01 µg/kg
Concentration in liver [1, 10]: trace
Concentration in feces [1]: 1.54 ± 0.49 µg/kg
Concentration in urine [1]: trace
Structure (SMILES): CC(=O)C(=O)c1c(O)c(C(O)C(C)=O)c2oc(-c3ccc(O)c(O)c3)c(OC3OC(COC4OC(C)C(O)C(O)C4O)C(O)C(O)C3O)c(=O)c2c1O (stereo not shown) [6-(1,2-propanedione)-8-(1-acetol)-rutin]
Plasma concentration of oxidized rutin-MGO adducts [2]: 2.38 ng/mL

Concentration in brain [1, 10]: 0.45 ± 0.28 µg/kg
Concentration in colon [1, 10]: trace
Concentration in heart [1, 10]: trace
Concentration in ileum [1, 10]: trace
Concentration in kidney [1, 10]: 0.12 ± 0.02 µg/kg
Concentration in liver [1, 10]: trace
Concentration in stomach [1, 10]: trace
Concentration in feces [1]: 2.23 ± 0.54 µg/kg
Concentration in urine [1]: 0.09 ng/mL and 0.09 ± 0.00 ng/mL
Structure (SMILES): CC(=O)C(=O)c1c(O)c(C(O)C(C)=O)c(O)c2c(=O)c(O[C@@H]3O[C@H](CO[C@@H]4O[C@@H](C)[C@H](O)[C@@H](O)[C@H]4O)[C@@H](O)[C@H](O)[C@H]3O)c(-c3ccc(O)c(O)c3)oc12 (stereo partly shown) [6-(1-acetol)-8-(1,2-propanedione)-rutin]
Plasma concentration of oxidized rutin-MGO adducts [2]: 1.61 ng/mL

Total (maximum) level in plasma, sum of adducts A and B ([3]; 15 min after oral rutin 100 mg/kg BW): 15.80 µg/L
Structure (SMILES): CC(=O)C(O)c1c(O)c(C(O)C(C)=O)c2oc(-c3ccc(O)c(O)c3)c(O[C@@H]3O[C@H](CO[C@@H]4O[C@@H](C)[C@H](O)[C@@H](O)[C@H]4O)[C@@H](O)[C@H](O)[C@H]3O)c(=O)c2c1O (stereo partly shown) [6-(1-acetol)-8-(1-acetol)-rutin]

Structure (SMILES): O=C(O[C@@H]1Cc2c(O)cc(O)cc2O[C@@H]1c1cc(O)c(O)c(O)c1)c1cc(O)c(O)c(O)c1 [(–)-epigallocatechin gallate]
Elimination rate on MGO (MGO scavenged) [4]: 99%

Concentration in kidney [1, 10]: trace
Concentration in feces [1]: Trace
concentration at 0.25 h ([3]; male, Sprague-Dawley, rat, plasma, oral, rutin 100 mg/kg BW oral gavage, time point 0.25 h): 9.4 ng/mL
Plasma concentration [3, 11]: 9.40 ± 6.37 ng/mL
Plasma concentration [3, 12]: trace
Plasma concentration [3, 13]: trace
Plasma concentration ([3]; rutin 100 mg/kg BW oral gavage, time point 10.00 h): trace
Structure (SMILES): CC(=O)C(O)c1c(O)c(C(O)C(C)=O)c2oc(-c3ccc(O)c(O)c3)c(OC3OC(COC4OC(C)C(O)C(O)C4O)C(O)C(O)C3O)c(=O)c2c1O (stereo not shown) [Adduct A, 6-(1-acetol)-8-(1-acetol)-rutin]
Reduction of cell viability (cells dead) [5]: 19%
Reduction of cell viability (cells dead) [6]: 19%
Reduction of cell viability (cells dead) ([7]; GES-1, 1 mM): 27%

Concentration in kidney [1, 10]: trace
Concentration in feces [1]: Trace
Plasma concentration [3, 11]: 6.40 ng/mL and 6.40 ± 3.90 ng/mL
Plasma concentration [3, 12]: trace
Plasma concentration [3, 13]: trace
Plasma concentration ([3]; rutin 100 mg/kg BW oral gavage, time point 8.00 h): trace
Plasma concentration ([3]; rutin 100 mg/kg BW oral gavage, time point 24.00 h): trace
Structure (SMILES): CC(=O)C(O)c1c(O)c(C(O)C(C)=O)c2oc(-c3ccc(O)c(O)c3)c(OC3OC(COC4OC(C)C(O)C(O)C4O)C(O)C(O)C3O)c(=O)c2c1O (stereo not shown) [Adduct B, 6-(1-acetol)-8-(1-acetol)-rutin]
Reduction of cell viability (cells dead) [5]: 16%
Reduction of cell viability (cells dead) [6]: 18%
Reduction of cell viability (cells dead) ([7]; GES-1, 1 mM): 25%

Structure (SMILES): CC(=O)C=O [MGO, Methylglyoxal]
Growth of the cells inhibited ([7]; GES-1, 600 μM): more than 50%
Cells left alive ([7]; GES-1, 1 mM): 17%
Growth of the cells inhibited ([7]; GES-1, 200–400 μM): 18–19%

Structure (SMILES): O=c1cc(-c2ccc(O)cc2)oc2cc(O)cc(O)c12 [apigenin]
Elimination rate on MGO (MGO scavenged) [4]: 40%

Structure (SMILES): Oc1cc(O)c2c(c1)O[C@H](c1ccc(O)c(O)c1)[C@H](O)C2 [epicatechin]
Elimination rate on MGO (MGO scavenged) [4]: 99%

Structure (SMILES): COc1ccc([C@@H]2CC(=O)c3c(O)cc(O)cc3O2)cc1O [hesperetin]
Elimination rate on MGO (MGO scavenged) [4]: 63%

Structure (SMILES): O=C(CCc1ccc(O)cc1)c1c(O)cc(O)cc1O [phloretin]
Elimination rate on MGO (MGO scavenged) [4]: 99%

Structure (SMILES): C[C@@H]1O[C@@H](OC[C@H]2O[C@@H](Oc3c(-c4ccc(O)c(O)c4)oc4cc(O)cc(O)c4c3=O)[C@H](O)[C@@H](O)[C@@H]2O)[C@H](O)[C@H](O)[C@H]1O [rutin, quercetin-3-O-rutinoside]
Reduction of cell viability (cells dead) [5]: 12%
Inhibitory effect on the formation of AGEs in glycation reaction [8]: more than 90%
Reduction of cell viability (cells dead) [6]: 15%
Time at which plasma concentration reached maximum [9]: 60 min
Reduction of cell viability (cells dead) ([7]; GES-1, 1 mM): 16%
MGO eliminated ([4]; rutin 0.5 mM with MGO 0.5 mM, 37 °C, 24 h, simulated physiological condition): 50%
